Measurements reported in patent US8557875B2, “Gene transfer agent composition containing polyamidoamine dendron” (Public University Corporation Osaka Prefecture University, priority 2009, dated 2013).

Tests used:
[1] = tested on: NHDF-ad cells; assay: GFP expression after gene transfer with lipoplexes (Example 4); format: cell-based, human; conditions: GFP-expression plasmid
Description: A solvent was removed from each of chloroform solutions (1 mg/ml) of polyamidoamine dendrons (DL-G1 and DL-G1-U2) using a rotary evaporator to form 111.5 μg of lipid thin films. The thin films were dried in vacuo for 2 hours. Then, […] of phosphate buffered saline (PBS) were added. The mixtures were further sonicated for 2 minutes using a bath-type ultrasonicator to give 160 μl of lipid dispersion liquids. In addition, a solution (20 μg/ml, 160 μl) prepared by dissolving plasmid DNA in a 20 mM Tris-HCl buffer was added to each of the lipid dispersion liquids so as to obtain different N/P ratios. Then, the liquids were incubated at room temperature for 30 minutes to obtain lipoplexes.
pEGFP-C1 expressing a green fluorescent protein was used as a gene transfer plasmid, and NHDF-ad cells were used as target cells. Lipoplexes were prepared using, individually, DL-U2 and DL-G1. Then, gene transfer was performed.
NHDF-ad cells were seeded in a 24-well plate.
(NHDF-ad cells: 2.5×10^4 cells/well·DMEM+10% FBS (Pe/St) 500 μl)
(i) A 20 mM Tris-HCl (pH 7.4) buffer was dispensed into two tubes at, individually, 56.3 μl (for NP ratio=3) and 37.5 μl (for NP ratio=6).
(ii) 1.0 μg of plasmid DNA (pCAG-GFP) was added to each of the two tubes prepared in step (i) at 2 μl (1.0 μg), and the contents were stirred. […]

[2] = tested on: NHDF-ad cells; assay: Flow cytometry of GFP fluorescence in treated cells; format: cell-based, human
[3] = tested on: COS-7; assay: Gene transfer (GFP expression, luciferase activity) versus commercial agents (Example 5); format: cell-based; conditions: COS-7 adherent cells; compared with Lipofectamine LTX and FuGENE HD
Description: (§1) pEGFP-C1 expressing a green fluorescent protein was used as a gene transfer plasmid; and adherent cells COS-7 and Hela-S3, and non-adherent cells K562, which were established cell lines, were used as target cells. Lipoplexes were individually prepared using DL-U2. Then, gene transfer was performed.
(COS7 cells: 2.0×10^4 cells/well·DMEM+10% FBS (Pe/St) 500 μl)
(§2) (i) A 20 mM Tris-HCl (pH 7.4) buffer was dispensed into three tubes at 35.5 μl (for NP ratio=6) for each of two tubes, and 23 μl (for NP ratio=8) for the remaining tube.
(§3) (ii) 1.0 μg of plasmid DNA (pCAG-GFP) was added to each of the three tubes prepared in step (i) at 2 μl (1.0 μg), and the contents were stirred.
(§4) (iii) A DL-U2 liposome solution was added to the three tubes prepared in step (ii) at 37.5 μl (N/P ratio=6) for each of two tubes, and 50 μl (N/P ratio=8) for the remaining tube.
(§5) (iv) 25 μl of an Opti-MEM (registered trademark) I Reduced-Serum Medium was further added, and the whole was thoroughly mixed and allowed to stand at room temperature for 5 minutes.
(v) 100 μl of the DL-plasmid DNA complex solution (N/P ratio=6) was added and mixed with the COS7 cells. […]
(§6) (vii) 48 hours later, luciferase activity was measured according to the protocol of the luciferase assay system (Promega, E1501) (relative values based on the activity of LTX defined as 1 were graphed).

[4] = tested on: K562; assay: as above; format: cell-based; conditions: K562 non-adherent cells; compared with Lipofectamine LTX and FuGENE HD
Description: as §1, §2, §3, §4, §5
50 μl of the DL-plasmid DNA complex solution (N/P ratio=8) was added and mixed with the K562 cells. […]
as §6

[5] = tested on: COS-7; assay: Cytotoxic evaluation on gene transfer (Example 5); format: cell-based; conditions: compared with Lipofectamine LTX and FuGENE HD
[6] = tested on: HeLa-S3; assay: Cytotoxic evaluation on gene transfer (Example 5); format: cell-based; conditions: compared with Lipofectamine LTX and FuGENE HD

**Q.** Which results are given for `CCCCCCCC/C=C\CCCCCCCCN(CCCCCCCC/C=C\CCCCCCCC)CCC(=O)NCCN(CCC(=O)NCCN)CCC(=O)NCCN` (racemic) [DL-G1-U2]?
**A.** gene transfer into NHDF-ad cells [1]: allowed the gene to be transferred; fluorescence intensity of GFP expressed in the cells compared with DL-G1 [2]: about ten times higher; gene transfer activity [3]: excellent gene transfer activity; gene transfer activity [4]: excellent gene transfer activity; cytotoxicity [5]: lower cytotoxicity; cytotoxicity [6]: lower cytotoxicity
